Measurements from patent US20170087113A1, “METHODS FOR TREATING UREA CYCLE DISORDERS TO PREVENT HYPERAMMONEMIC CRISES BY CONTROLLING BLOOD AMMONIA LEVELS” (HORIZON THERAPEUTICS, LLC, priority 2014, published 2017).

What was measured:
UCD patients [1] = assay: Occurrence of hyperammonemic crises (HAC): 12 months pre-enrollment on NaPBA versus 12-month GPB treatment (studies HPN-100-005, -007, -012); assay type: in vivo, human; conditions: for # of HA events (total no. of HAC): 12 months pre-study (NaPBA) or during study (GPB); for # of HACs / Subjects with 1 or more HACs: subjects ages 6 years or higher, total N=77, pre-study (NaPBA) or study (GPB)
Source text: Data from four short-term switchover (SO) studies and three 12-month safety extension (SE) studies in adult and pediatric UCD patients were included in the analyses; all have been previously described. […] Most patients completing these protocols plus additional patients (a total of 100 of whom 49 were pediatric) were enrolled into safety extension studies and received GPB for 12 months (Diaz 2013), (Mokhatarani 2013), (Berry 2014).
All protocols and informed consents were reviewed and approved by the Investigational Review Board of each participating institution prior to initiation. […] In all studies, patients received GPB three times daily (or more frequently in small children to match their prior NaPBA schedule) at a daily dose equivalent to their previously prescribed NaPBA dose. […] Fasting ammonia and glutamine levels were analyzed as a predictor of HACs during long-term treatment.
(§1) During the 12 month studies, blood samples for ammonia and glutamine analyses were collected monthly and information on HACs was recorded. […] Ammonia and glutamine concentrations were measured by an accredited hospital laboratory at each study site and ammonia values were normalized to a standard range of 9 to 35 μmol/L.
Data for 100 UCD subjects from three clinical trials (HPN-100-005, HPN-100-007, and HPN-100-012) were analyzed to evaluate the correlation between fasting ammonia levels and HAC (Table 1). Patients were treated for 12 months with GPB during the study. There was an almost equal split in the number of subjects who were adults (51%) and children (49%), defined as age<18 years at the time of enrollment. In this population, 30 patients had experienced a total of 54 HACs in the 12 months prior to the study and 19 patients experienced a total of 27 HACs during the study (Table 1). Baseline ammonia was defined as the subject's fasting ammonia level taken either at month zero or at the screening visit depending on which study the subject was enrolled in and whether the subject was enrolled in previous studies.

blood ammonia = assay: Total ammonia exposure (TNAUC of monthly ammonia) during 12-month GPB treatment; assay type: in vivo, human; parameters: TNAUC ammonia, mean: unit not given beside the values; conditions: for TNAUC ammonia, mean: patients with HAC, N=19; for TNAUC ammonia, mean (SD): patients with no HAC, N=81
Procedure: as §1
The relationship between total ammonia exposure over time and the risk of HAC occurrence was explored by calculating time normalized area under the curve (TNAUC12months) for ammonia for patients with and without an HAC during the 12-month treatment with GPB (Table 13). The AUC for ammonia, measured monthly, was calculated for each patient using the trapezoid rule over the course of the 12 month study. To normalize the AUC, TNAUCxmonth, AUC was divided by the final study month of an ammonia assessment.

venous ammonia = conditions: study HPN-100-006 (Diaz 2013); cited from earlier work
glutamine = assay: Glutamine levels and exposure during 12-month GPB treatment; assay type: in vivo, human
Procedure: as §1
The relationship between glutamine levels and ammonia categories was also analyzed. […] Glutamine levels were analyzed over the 12 month study period in patients treated for 12 months with GPB. Monthly glutamine levels were generally higher in patients in the higher baseline ammonia ULN groups and, by three months of treatment, had decreased in the patients with the highest baseline glutamine at baseline (FIG. 14A).

UCD patients [2] = assay: Duration of HAC during the 12-month GPB studies; assay type: in vivo, human
Procedure: The relationship between ammonia exposure and duration of HAC was analyzed. Ammonia exposure was characterized three different ways: peak ammonia during crisis, total ammonia during crisis and ammonia at time of admission. The majority of the HACs typically lasted a day, and a steep drop off in the distribution was seen after 2 days. (Note: two subjects were excluded with 20 days of duration of HAC in this analyses).

[3] = all patients N=100, pre-study (NaPBA) or during study (GPB)
[4] = study 005, N=17, pre-study (NaPBA) or during study (GPB)
[5] = study 007, N=60, pre-study (NaPBA) or during study (GPB)
[6] = study 012, N=23, pre-study (NaPBA) or during study (GPB)

sodium phenylbutyrate [NaPBA]
12-month incidence of HAC (UCD patients [1]; adult (≧18 years)): 0.832
Proportion of patients who experienced an HAC (UCD patients [1]; adult (≧18 years)): 17.7%
# of HA events (total no. of HAC) (UCD patients [1]; all patients N=100): 54
N with ≧1 HA events (number of patients with HAC) (UCD patients [1]; [3]): 30
Proportion of patients who experienced an HAC (UCD patients [1]; [3]): 30.0%
12-month incidence of HAC (UCD patients [1]; female): 0.712
Proportion of patients who experienced an HAC (UCD patients [1]; female): 23.9%
12-month incidence of HAC (UCD patients [1]; male): 0.516
Proportion of patients who experienced an HAC (UCD patients [1]; male): 42.4%
12-month incidence of HAC (UCD patients [1]; non-white): 0.660
Proportion of patients who experienced an HAC (UCD patients [1]; non-white): 36.8%
12-month incidence of HAC (UCD patients [1]; pediatric (<18 years)): 0.338
Proportion of patients who experienced an HAC (UCD patients [1]; pediatric (<18 years)): 42.9%
# of HA events (UCD patients [1]; [4]): 8
N with ≧1 HA events (UCD patients [1]; [4]): 5
# of HA events (UCD patients [1]; [5]): 17
N with ≧1 HA events (UCD patients [1]; [5]): 10
# of HA events (UCD patients [1]; [6]): 29
N with ≧1 HA events (UCD patients [1]; [6]): 15
# of HACs (UCD patients [1]): 25
Subjects with 1 or more HACs (UCD patients [1]): 15
12-month incidence of HAC (UCD patients [1]; white): 0.564
Proportion of patients who experienced an HAC (UCD patients [1]; white): 28.4%

O=C(CCCc1ccccc1)OCC(COC(=O)CCCc1ccccc1)OC(=O)CCCc1ccccc1 [GPB, glycerol phenylbutyrate]
TNAUC ammonia, mean (blood ammonia; Month 0-3): 33.3
TNAUC ammonia, mean (SD) (blood ammonia; Month 0-3): 23.5 (13.62)
TNAUC ammonia, mean (blood ammonia; Month 0-6): 33.0
TNAUC ammonia, mean (SD) (blood ammonia; Month 0-6): 24.0 (13.85)
TNAUC ammonia, mean (blood ammonia; Month 0-9): 33.4
TNAUC ammonia, mean (SD) (blood ammonia; Month 0-9): 23.7 (12.56)
TNAUC ammonia, mean (blood ammonia; Month 0-12): 35.0
TNAUC ammonia, mean (SD) (blood ammonia; Month 0-12): 23.6 (11.94)
Ammonia control of GPB versus NaPBA as assessed by venous ammonia (venous ammonia): non-inferiority
Change of glutamine levels during GPB treatment (glutamine; patients with the highest baseline glutamine, by three months of treatment): decreased
Total glutamine exposure, TNAUC12month (glutamine; subjects with an HAC during the study): 720.9 μmol/L*m
Total glutamine exposure, TNAUC12month (glutamine; subjects without an HAC during the study): 699.4 μmol/L*m
Lower HAC incidence rate during study (GPB) than pre-enrollment (UCD patients [1]; 0.288 versus […]): roughly 50%
Proportion of patients who experienced an HAC (UCD patients [1]; Group 1 study sites (33 patients, >50% with baseline ammonia <0.5 ULN)): 12%
Proportion of patients who experienced an HAC (UCD patients [1]; Group 2 study sites (29 patients)): 21%
Proportion of patients who experienced an HAC (UCD patients [1]; Group 3 study sites (38 patients)): 24%
# HAC (UCD patients [1]; Month 0-3 of GPB treatment): 5
% of Total HAC (UCD patients [1]; Month 0-3 of GPB treatment): (18.5%)
HAC Incidence Rate/month (UCD patients [1]; Month 0-3 of GPB treatment): 0.0170
# HAC (UCD patients [1]; Month 0-6 of GPB treatment): 13
% of Total HAC (UCD patients [1]; Month 0-6 of GPB treatment): (48.1%)
HAC Incidence Rate/month (UCD patients [1]; Month 0-6 of GPB treatment): 0.0224
# HAC (UCD patients [1]; Month 0-9 of GPB treatment): 20
% of Total HAC (UCD patients [1]; Month 0-9 of GPB treatment): (74.1%)
HAC Incidence Rate/month (UCD patients [1]; Month 0-9 of GPB treatment): 0.0234
# HAC (UCD patients [1]; Month 0-12 of GPB treatment): 27
% of Total HAC (UCD patients [1]; Month 0-12 of GPB treatment): (100%)
HAC Incidence Rate/month (UCD patients [1]; Month 0-12 of GPB treatment): 0.0240
Proportion of patients who experienced an HAC during the study (UCD patients [1]; OTC deficiency (n=69)): 18.8%
12-month incidence of HAC (UCD patients [1]; adult (≧18 years)): 0.371
Proportion of patients who experienced an HAC (UCD patients [1]; adult (≧18 years)): 13.7%
Proportion of patients with no HAC (UCD patients [1]; adult ≧18 years, during study): 86.3%
Subjects who had not experienced an HAC (Kaplan-Meier, HAC-free survival) (UCD patients [1]; after about one year of follow-up during treatment with GPB): 80%
Proportion of patients who experienced an HAC (UCD patients [1]; age 6-11 years, during study): 23.5%
Proportion of patients with no HAC (UCD patients [1]; age 6-11 years, during study): 76.5%
Proportion of patients who experienced an HAC (UCD patients [1]; age 12-17 years, during study): 11.1%
Proportion of patients with no HAC (UCD patients [1]; age 12-17 years, during study): 88.9%
Proportion of patients who experienced an HAC (UCD patients [1]; age <6 years, during study): 30.4%
Proportion of patients with no HAC (UCD patients [1]; age <6 years, during study): 69.6%
# of HA events (total no. of HAC) (UCD patients [1]; all patients N=100): 27
N with ≧1 HA events (number of patients with HAC) (UCD patients [1]; [3]): 19
Proportion of patients who experienced an HAC (UCD patients [1]; [3]): 19.0%
Proportion of patients with no HAC (UCD patients [1]; all patients, during study): 81.0%
Proportion of patients with no HAC (UCD patients [1]; baseline ammonia 0-<0.5 ULN, during study): 89.7%
Proportion of patients with no HAC (UCD patients [1]; baseline ammonia 0.5-<1.0 ULN, during study): 85.3%
Proportion of patients with no HAC (UCD patients [1]; baseline ammonia ≧1 ULN, during study): 63.0%
12-month incidence of HAC (UCD patients [1]; female): 0.314
Proportion of patients who experienced an HAC (UCD patients [1]; female): 16.4%
Proportion of patients with no HAC (UCD patients [1]; female, during study): 83.6%
12-month incidence of HAC (UCD patients [1]; male): 0.275
Proportion of patients who experienced an HAC (UCD patients [1]; male): 24.2%
Proportion of patients with no HAC (UCD patients [1]; male, during study): 75.8%
Proportion of patients who experienced an HAC during the study (UCD patients [1]; non-OTC deficiencies): 19.4%
12-month incidence of HAC (UCD patients [1]; non-white): 0.248
Proportion of patients who experienced an HAC (UCD patients [1]; non-white): 21.1%
Proportion of patients with no HAC (UCD patients [1]; non-white, during study): 78.9%
12-month incidence of HAC (UCD patients [1]; pediatric (<18 years)): 0.209
Proportion of patients who experienced an HAC (UCD patients [1]; pediatric (<18 years)): 24.5%
Proportion of patients with no HAC (UCD patients [1]; pediatric <18 years, during study): 75.5%
# of HA events (UCD patients [1]; [4]): 3
N with ≧1 HA events (UCD patients [1]; [4]): 3
# of HA events (UCD patients [1]; [5]): 12
N with ≧1 HA events (UCD patients [1]; [5]): 9
# of HA events (UCD patients [1]; [6]): 12
N with ≧1 HA events (UCD patients [1]; [6]): 7
# of HACs (UCD patients [1]): 15
Subjects with 1 or more HACs (UCD patients [1]): 12
12-month incidence of HAC (UCD patients [1]; white): 0.296
Proportion of patients who experienced an HAC (UCD patients [1]; white): 18.5%
Proportion of patients with no HAC (UCD patients [1]; white, during study): 81.5%
Duration of HAC that lasted less than 2 days (UCD patients [2]; overall): about 64%
Duration of HA crisis 1-1.99 days (UCD patients [2]; study 005): 0.0%
Duration of HA crisis 2-2.99 days (UCD patients [2]; study 005): 50.0%
Duration of HA crisis <1 days (UCD patients [2]; study 005): 50.0%
Duration of HA crisis >3 days (UCD patients [2]; study 005): 0.0%
Duration of HA crisis, median (UCD patients [2]; study 005): 1.27 days
Duration of HA crisis, mean (UCD patients [2]; study 005, N=2): 1.27 days
Duration of HA crisis 1-1.99 days (UCD patients [2]; study 007): 16.7%
Duration of HA crisis 2-2.99 days (UCD patients [2]; study 007): 33.3%
Duration of HA crisis <1 days (UCD patients [2]; study 007): 41.7%
Duration of HA crisis >3 days (UCD patients [2]; study 007): 8.3%
Duration of HA crisis, median (UCD patients [2]; study 007): 1.36 days
Duration of HA crisis, mean (UCD patients [2]; study 007, N=12): 1.95 days
Duration of HA crisis 1-1.99 days (UCD patients [2]; study 012): 18.2%
Duration of HA crisis 2-2.99 days (UCD patients [2]; study 012): 18.2%
Duration of HA crisis <1 days (UCD patients [2]; study 012): 54.6%
Duration of HA crisis >3 days (UCD patients [2]; study 012): 9.1%
Duration of HA crisis, median (UCD patients [2]; study 012): 0.92 days
Duration of HA crisis, mean (UCD patients [2]; study 012, N=11): 1.53 days
Duration of HA crisis 1-1.99 days (UCD patients [2]; total, N=25): 16.0%
Duration of HA crisis 2-2.99 days (UCD patients [2]; total, N=25): 28.0%
Duration of HA crisis >3 days (UCD patients [2]; total, N=25): 8.0%
Duration of HA crisis, mean (UCD patients [2]; total, N=25): 1.71 days
Duration of HA crisis, median (UCD patients [2]; total, N=25): 1.00 days
